The source of these data is publication PMC11344848, “Proximity-driven site-specific cyclization of phage-displayed peptides” (Nature Communications, 2024).

The data set in a line: N-terminal-to-internal Cys bridging with heterobifunctional cyclopropenone-chloroacetamide linker (CCA): DTT reduction, cyclopropenone condensation with N-terminal Cys 1,2-aminothiol (1,4-thiazepan-5-one), then proximity-driven intramolecular thioether formation between internal Cys thiol and chloroacetamide. Particulars: the molecule shown is the open-chain precursor, PBS pH 7.4, 5% DMSO, 0.01 mM, 25.0 °C, 2.0 h, 2 steps.

Compound H-CYKLAEGDKYYIC-[D1/D2 pIII fusion] yielded a ring closure, conversion by HPLC (52-membered ring) of 100%. As to H-CQPHPGQTC-[AAA-D1/D2 pIII fusion], the ring closure, conversion by HPLC (40-membered ring) stood at 100%.

Take H-CGGSGGC-[WLAAA-D1/D2 pIII fusion]: the ring closure, conversion by HPLC (34-membered ring) is 100%.

H-CPEGYILDDGFCTDIDE-[D1/D2 pIII fusion]: the ring closure, conversion by HPLC (49-membered ring) is 100%.

On to `N=C(N)NCCC[C@H](NC(=O)[C@@H]1CCCN1C(=O)[C@H](CS)NC(=O)[C@H](CC(N)=O)NC(=O)[C@H](CCC(N)=O)NC(=O)[C@H](Cc1ccccc1)NC(=O)[C@H](Cc1ccc(O)cc1)NC(=O)[C@@H]1CSCC(CCCC(=O)N2CCN(C(=O)CCl)CC2)C(=O)N1)C(=O)NCC(N)=O` (stereo partly drawn) [H-CYFQNCPRG-NH2], for which the ring closure, conversion by HPLC (31-membered ring) is > 95%. H-CGSGGSGC-[AAA-D1/D2 pIII fusion]: the ring closure, conversion by HPLC (37-membered ring) amounted to 100%.
